Measured values as given in paper PMC5698723, “Oxetane Grafts Installed Site‐Selectively on Native Disulfides to Enhance Protein Stability and Activity In Vivo” (Angewandte Chemie (International Ed. in English), 2017).

Columns and labels:
[1] = Stability of stapled cyclic peptides in GSH solution; type: physicochemical; settings: around 1 mM peptide in H2O, 1 mM GSH, 37 °C, 48 h, HPLC read-out (212 nm)
Method: 6. Stability test of stapled cyclic peptides
A 100 µL aliquot of stapled peptide (around 1 mM) in H2O was treated with 5.3 µL of a 20 mM GSH solution (to 1 mM) and the resulting mixture vortexed for 30 s and then shaken at 37 °C. After 48 h, an aliquot of each reaction mixture was analysed by HPLC [YMC-Pack Pro C18 column (5 µ, 250 mm × 10 mm), isocratic: acetonitrile+0.1% TFA /water+0.1% TFA (73- […]
(§1) 27), 15 min, λ = 212nm, flow=3.5)]. […]
(YMC-Pack Pro C18 column (5 µ, 250 mm × 10 mm), isocratic: acetonitrile+0.1% TFA […]
(§2) /water+0.1% TFA (73-27), 15 min, λ = 212nm, flow=3.5)).

[2] = Stability of stapled cyclic peptides in human plasma; type: in vitro ADME; settings: around 1 mM peptide in H2O (100 µL) + 1 µL reconstituted human plasma, 37 °C, 48 h, HPLC read-out (212 nm)
Method: 6. Stability test of stapled cyclic peptides […]
as §1
A 100 µL aliquot of stapled peptide (around 1 mM) in H2O was treated with 1 µL of
reconstituted human plasma (Sigma-Aldrich) and the resulting mixture vortexed for 30 s and
then shaken at 37 °C. After 48 h, an aliquot of each reaction mixture was analysed by HPLC
(YMC-Pack Pro C18 column (5 µ, 250 mm × 10 mm), isocratic: acetonitrile+0.1% TFA
as §2

Compound | stability in the presence of glutathione (GSH) [1] | stability in human plasma [2]
C[C@H](N)C(=O)NCC(=O)N[C@H]1CSCC2(COC2)CSC[C@@H](C(=O)O)NC(=O)[C@H](CO)NC(=O)[C@H]([C@@H](C)O)NC(=O)[C@H](Cc2ccccc2)NC(=O)[C@H]([C@@H](C)O)NC(=O)[C@H](CCCCN)NC(=O)[C@H](Cc2c[nH]c3ccccc23)NC(=O)[C@H](Cc2ccccc2)NC(=O)[C@H](Cc2ccccc2)NC(=O)[C@H](CC(N)=O)NC(=O)[C@H](CCCCN)NC1=O [compound 3] | remain intact | remain intact
C[C@@H](O)[C@@H]1NC(=O)[C@H](CCCCN)NC(=O)[C@@H](Cc2c[nH]c3ccccc23)NC(=O)[C@H](Cc2ccccc2)NC(=O)[C@@H](NC(=O)[C@H](N)Cc2ccccc2)CSCC2(COC2)CSC[C@@H](C(=O)N[C@H](CO)[C@@H](C)O)NC1=O [compound 5] | remain intact | remain intact
